Structures are written as SMILES.

Here are results for one molecule from paper PMC6218659, “Structures of DPAGT1 Explain Glycosylation Disease Mechanisms and Advance TB Antibiotic Design” (Cell, 2018).

Data set [1] can be described thus: Tolerance testing in uninfected mice. Format: in vivo. The note with it: uninfected mice (n=5), 10 days, daily 30 mg.kg^-1 ip.
Another data set addresses T1, DPAGT1 (Homo sapiens, UniProt Q9H3H5).
T1 construct: H. sapiens DPAGT1 (1-408, N-terminal 6 x HIS tag, TEV cleavage site); 6xHis purification tag with TEV site (N, cleaved yes); made in house; host or cells: Spodoptera frugiperda Sf9 insect cells (baculovirus)
T1 sequence (Q9H3H5 1-408): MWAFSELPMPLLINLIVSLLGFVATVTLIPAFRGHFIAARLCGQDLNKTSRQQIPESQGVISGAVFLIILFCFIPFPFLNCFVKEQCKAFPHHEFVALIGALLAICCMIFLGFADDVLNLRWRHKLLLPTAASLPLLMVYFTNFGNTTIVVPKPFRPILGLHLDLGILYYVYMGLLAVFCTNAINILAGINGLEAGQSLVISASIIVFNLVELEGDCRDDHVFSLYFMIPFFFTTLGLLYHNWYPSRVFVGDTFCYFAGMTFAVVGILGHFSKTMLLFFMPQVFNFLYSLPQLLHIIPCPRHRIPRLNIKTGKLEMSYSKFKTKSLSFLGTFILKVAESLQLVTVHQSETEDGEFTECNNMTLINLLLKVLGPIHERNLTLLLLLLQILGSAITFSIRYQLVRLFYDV
The data set can be described thus: Radiolabeled substrate enzyme activity assay. The note with it: purified DPAGT1 enzyme, Figure 6F. Type of data set: biochemical, H. sapiens. As for the experimental part:
2 μl of 2 μM DPAGT1 WT or mutant proteins in GFB buffer supplemented with 5mM extra MgCl2, 1% OGNG/CHS/cardiolipin and dolichyl monophosphate was combined with 2 μl of UDP-N-acetyl [1-14C] […] The reaction was terminated by the addition of 6 μl of 100% methanol and immediately transferred onto ice. 1 μl of sample was spotted onto a silica coated TLC plate in triplicate and run with a mobile phase consisting of chloroform, methanol, and water at a 65:25:4 ratio respectively. After the run, the TLC plate was dried thoroughly, wrapped in cling film, incubated with a phosphor imaging substrate for 4 days, then phosphor imaged using a Biorad. The pixel density of the spots corresponding to the hydrophobic product was divided by combined pixel density of the product and the substrate and multiplied by the known concentration of substrate added to ascertain the amount of product formed.

A further data set in a line: in vivo. Further details: species or system C57BL/6 mice. The note with it: ip; for concentration at 0.5 h / concentration at 1 h / concentration at 2 h / concentration at 4 h / concentration at 6 h / concentration at 24 h: female, C57BL/6, mouse, 30 mg/kg. As for the experimental part:
Test compound was dosed to sixteen female C57BL/6 mice by intraperitoneal injection in a volume of 0.6 ml. To reconstitute TUN-8,8 for intraperitoneal injections, compound (1 mg) was dissolved in 0.1 ml ethanol and subsequently diluted with 0.9 ml 1% Tween 80 in Dulbecco’s PBS. The mixture was warmed to 37 °C, vortexed and sonicated followed by sterile filtration through a 0.2 μm filter. Blood samples were taken from the tail vein of the mice at pre-determined time intervals post-dose, and serum collected after 4 h on ice. 30 μl serum samples were prepared with 30 μl internal standard and 20 μl of water or spiked standard along with 240 μl of ACN/MeOH mix (3:1) to precipitate proteins. Samples were centrifuged 13 krpm for 5 minutes and 2 μl injected into LC-MS/MS system. Calibration standard was prepared 1 mg of TUN-8,8 to 1 ml DMSO and successively diluted by a factor of 3. TUN-9,9 IS solution was prepared to 200 μg/ml in DMSO.
LC-MS/MS was performed on an Agilent 1290 Infinity HPLC coupled to an Agilent 6460C triple quadrupole mass selective detector with electrospray ionization in positive mode. TUN-8,8 and TUN-9,9 (as an internal standard) were detected using their M+H precursors ions with 514.1 and 528.2 Da/z product ions produced in a collision cell using collision energy 12 V. Capillary voltage was 3000 V and ESI used jet stream technology with sheath voltage 2000 V. The column was an Agilent C18 Poroshell 120 2.7 μm with dimensions 2.1 x 50 mm at 40 °C. Mobile phase was water (A) and acetonitrile (B) each with 0.1% (v/v) formic acid. […] Water for LC-MS/MS was purified by a Barnstead Diamond system to 18.2 MΩ-cm resistivity. Acetonitrile (ACN) and Methanol were HPLC grade from Fisher (Fairlawn NJ, USA) and formic acid was supplied from EMD Millipore Corp (Darmstadt, Germany). DMSO was ACS grade manufactured by Amresco LLC in Solon Ohio USA.

Another data set deals with Mtb H37Rv ATCC27294. Put plainly: Macromolecular incorporation assay (radiolabeled glucosamine). Particulars: within 48 h, 10x MIC.
Data set [2] is described as follows: Human plasma protein binding assay. The note with it: read-out: human plasma protein binding, bound (converted). Format: in vitro ADME.
For a further data set, the system named is Mtb-infected mice. The data set can be described thus: Mouse infection, antitubercular activity.
For data set [3], the system named is Mtb-infected J774A.1 macrophages. The data set can be described thus: Efficacy against Mtb growing in infected macrophages. The note with it: J774A.1 macrophages treated 3 or 7 days.
The mark [4] stands for this setting: two weeks, 10 mg.kg^-1 ip, vs vehicle control.

Consider `CCCCCCCC(=O)N[C@H]1[C@H](O[C@H]2O[C@H](CO)[C@@H](O)[C@H](O)[C@H]2NC(=O)CCCCCCC)O[C@H](C[C@@H](O)[C@H]2O[C@@H](n3ccc(=O)[nH]c3=O)[C@H](O)[C@@H]2O)[C@H](O)[C@@H]1O` [TUN-8,8, Di-N-octanoyl-tunicamycin], for which the “tolerance, signs of toxicity” value in data set [1] is listed as “no signs of toxicity”. In addition, the “effect on DPAGT1 catalytic activity” value at DPAGT1 was “negligible effect”. In the data set “in vivo” (first series), the concentration at 0.5 h amounted to 42.7 ± 28.3 µM, the concentration at 1 h turned out to be 34.6 ± 7.4 µM, the concentration at 2 h was determined as 23.7 ± 9.25 µM and the concentration at 4 h amounted to 1.32 ± 1.09 µM. In the data set “in vivo” (first series), this molecule showed a concentration at 6 h of 0.21 ± 0.12 µM and a concentration at 24 h of 0.06 ± 0.08 µM. In the data set “in vivo” (second series), the concentration at 0.5 h turned out to be 52.1 ± 34.5 µM, the concentration at 1 h was found to be 42.3 ± 9.04 µM, the concentration at 2 h is 28.9 ± 11.3 µM and the concentration at 4 h was 1.61 ± 1.33 µM. Moreover, in “in vivo” (second series), the concentration at 6 h is 0.26 ± 0.15 µM and the concentration at 24 h was found to be 0.07 ± 0.1 µM. Besides, in the data set “in vivo” (mouse), the bioavailability result is reported as “good bioavailability”. Besides, the glucosamine incorporation entry in the data set with Mtb H37Rv ATCC27294 is recorded as “reduced”. For the same molecule, the fraction unbound in data set [2] was 0.018. Also, the “toxicity in infected mice” value in the data set on Mtb-infected mice (precluded testing beyond 2 weeks) is “clinical signs of toxicity”. Further, in the data set with Mtb-infected mice (setting [4]), the “reduction in bacterial burdens in lungs” value is listed as roughly 10 fold and the “reduction in bacterial burdens in spleens” value was roughly 5 fold. Moreover, in data set [3] (1 × MIC), the “reduction of intracellular bacterial burdens” value came to 1 logs. In addition, the “reduction of intracellular bacterial burdens” value in data set [3] (10 × MIC) came out at 2 logs.
